Results from ChEMBL document CHEMBL1201862, “PubChem BioAssay data set” (2004).
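Briefly, cells in 96-well plates were exposed to five compound concentrations for 48 h, and endpoints were estimated by linear interpolation. GI50: concentration for 50% inhibition of growth.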 Active and inactive are the calls of the source. Cut-off read from the data, not from the text of the source: active = GI50 up to about 1.1 µM and inactive = higher.

What was measured:
Experiment in all cases: DTP human tumour cell line panel, 48 h
HCT-116 = system: HCT-116
SK-MEL-28 = system: SK-MEL-28
TK-10 = system: TK-10
BT-549 = system: BT-549
LOX IMVI = system: LOX IMVI
MCF7 = system: MCF7
SNB-19 = system: SNB-19
PC-3 = system: PC-3
UACC-62 = system: UACC-62
NCI/ADR-RES = system: NCI/ADR-RES
MDA-N = system: MDA-N
COLO 205 = system: COLO 205
OVCAR-8 = system: OVCAR-8
MDA-MB-435 = system: MDA-MB-435
CCRF-CEM = system: CCRF-CEM
RXF 393 = system: RXF 393
IGROV-1 = system: IGROV-1
MOLT-4 = system: MOLT-4
SK-MEL-2 = system: SK-MEL-2
ACHN = system: ACHN

SMILES	GI50 (HCT-116)	GI50 (SK-MEL-28)	GI50 (TK-10)	GI50 (BT-549)	GI50 (LOX IMVI)	GI50 (MCF7)	GI50 (SNB-19)	GI50 (PC-3)	GI50 (UACC-62)	GI50 (NCI/ADR-RES)	GI50 (MDA-N)	GI50 (COLO 205)	GI50 (OVCAR-8)	GI50 (MDA-MB-435)	GI50 (CCRF-CEM)	GI50 (RXF 393)	GI50 (IGROV-1)	GI50 (MOLT-4)	GI50 (SK-MEL-2)	GI50 (ACHN)
C=CC(=O)N1C/C(=C\c2ccc(Cl)cc2)C(=O)/C(=C/c2ccc(Cl)cc2)C1	0.0923 µM (active)	0.442 µM (active)	1.39 µM (inactive)	0.329 µM (active)	0.124 µM (active)	0.151 µM (active)	1 µM (active)	0.255 µM (active)	0.294 µM (active)	0.436 µM (active)	0.214 µM (active)	0.39 µM (active)	0.322 µM (active)	0.262 µM (active)	0.175 µM (active)	0.275 µM (active)	0.353 µM (active)	0.3 µM (active)	1.32 µM (inactive)	0.286 µM (active)
CCOC(=O)c1cccc(/N=N/c2nc[nH]c2/C=C/C(=O)OC)c1	4.17 µM (inactive)	18.1 µM (inactive)	28.4 µM (inactive)	42.6 µM (inactive)	7.43 µM (inactive)	4.18 µM (inactive)	30.5 µM (inactive)	17.8 µM (inactive)	23.6 µM (inactive)	4.1 µM (inactive)	28.4 µM (inactive)	4.39 µM (inactive)	16.5 µM (inactive)	37 µM (inactive)	3.95 µM (inactive)	16.4 µM (inactive)	7.53 µM (inactive)	3.01 µM (inactive)	23.7 µM (inactive)	16.5 µM (inactive)
O=C1C(/N=N/c2ccc(-c3nc4ccccc4o3)cc2)NC(=S)N1c1ccccc1 (stereo not given)	> 100 µM (inactive)	> 100 µM (inactive)	70 µM (inactive)	> 100 µM (inactive)	35.5 µM (inactive)	33.2 µM (inactive)	> 100 µM (inactive)	> 100 µM (inactive)	80.2 µM (inactive)	73.5 µM (inactive)	32.8 µM (inactive)	> 100 µM (inactive)	60.3 µM (inactive)	60.7 µM (inactive)	0.0479 µM (active)	83.8 µM (inactive)	57.3 µM (inactive)	34.7 µM (inactive)	> 100 µM (inactive)	> 100 µM (inactive)
CC(C)(C)c1cc(C2NC(=O)NC2=O)cc(C(C)(C)C)c1O (stereo not given)	27.9 µM (inactive)	31.7 µM (inactive)	29 µM (inactive)	> 100 µM (inactive)	> 100 µM (inactive)	24.7 µM (inactive)	> 100 µM (inactive)	71.9 µM (inactive)	45.1 µM (inactive)	> 100 µM (inactive)	47 µM (inactive)	> 100 µM (inactive)	85.7 µM (inactive)	31 µM (inactive)	26.1 µM (inactive)	33.3 µM (inactive)	> 100 µM (inactive)	39.5 µM (inactive)	> 100 µM (inactive)	> 100 µM (inactive)
Cc1ccc2cccc(OC(=O)c3cc4c(cc3Cl)Sc3nccn3S4(=O)=O)c2n1	6.53 µM (inactive)	10.2 µM (inactive)	11 µM (inactive)	17.4 µM (inactive)	7.13 µM (inactive)	5.71 µM (inactive)	12.9 µM (inactive)	4.39 µM (inactive)	14.7 µM (inactive)	14 µM (inactive)	14.4 µM (inactive)	15.8 µM (inactive)	4.71 µM (inactive)	9.59 µM (inactive)	2.5 µM (inactive)	5.16 µM (inactive)	6.37 µM (inactive)	4.55 µM (inactive)	11.5 µM (inactive)	10.5 µM (inactive)
C(=C(c1ccc(OC2CCCCO2)cc1)c1ccc(OC2CCCCO2)cc1)c1ccccc1 (stereo not given)	0.412 µM (active)	1.04 µM (active)	1.14 µM (inactive)	0.543 µM (active)	0.232 µM (active)	0.0995 µM (active)	1.26 µM (inactive)	0.469 µM (active)	0.547 µM (active)	0.883 µM (active)	0.634 µM (active)	0.583 µM (active)	0.598 µM (active)	0.557 µM (active)	0.246 µM (active)	1.03 µM (active)	0.524 µM (active)	0.392 µM (active)	1.4 µM (inactive)	1.06 µM (active)
O=C(O)C(SC1=NC(=O)C2(NN1)c1ccccc1-c1ccccc12)SC1=NC(=O)C2(NN1)c1ccccc1-c1ccccc12	> 10 µM (inactive)	> 10 µM (inactive)	> 10 µM (inactive)	> 10 µM (inactive)	9.02 µM (inactive)	8.67 µM (inactive)	> 10 µM (inactive)	> 10 µM (inactive)	> 10 µM (inactive)	> 10 µM (inactive)	> 10 µM (inactive)	> 10 µM (inactive)	> 10 µM (inactive)	> 10 µM (inactive)	> 10 µM (inactive)	> 10 µM (inactive)	> 10 µM (inactive)	4.09 µM (inactive)	> 10 µM (inactive)	> 10 µM (inactive)
O=C(/C=C/c1ccc(O)c(O)c1)NC(CO)C(=O)O (stereo not given)	> 100 µM (inactive)	> 100 µM (inactive)	> 100 µM (inactive)	> 100 µM (inactive)	> 100 µM (inactive)	> 100 µM (inactive)	> 100 µM (inactive)	> 100 µM (inactive)	> 100 µM (inactive)	2.59 µM (inactive)	> 100 µM (inactive)	> 100 µM (inactive)	> 100 µM (inactive)	> 100 µM (inactive)	> 100 µM (inactive)	> 100 µM (inactive)	0.612 µM (active)	> 100 µM (inactive)	> 100 µM (inactive)	> 100 µM (inactive)
O=C1C=C(NCCOCCO)C(=O)c2c(O)ccc(O)c21	22.5 µM (inactive)	69 µM (inactive)	> 100 µM (inactive)	> 100 µM (inactive)	15.6 µM (inactive)	16 µM (inactive)	32.4 µM (inactive)	28.1 µM (inactive)	14.5 µM (inactive)	23.1 µM (inactive)	17.3 µM (inactive)	17.1 µM (inactive)	28.2 µM (inactive)	18.2 µM (inactive)	27.4 µM (inactive)	33.3 µM (inactive)	36.7 µM (inactive)	26.1 µM (inactive)	20.1 µM (inactive)	27.2 µM (inactive)
CCOC(=O)Oc1ccc2c(c1)c(=O)c1c(NCCCN(CC)CC)ccc3nnn2c31	1.37 µM (inactive)	18.6 µM (inactive)	2.79 µM (inactive)	17.5 µM (inactive)	2.52 µM (inactive)	0.929 µM (active)	5.2 µM (inactive)	0.303 µM (active)	15.3 µM (inactive)	7.76 µM (inactive)	1.19 µM (inactive)	11.7 µM (inactive)	3.48 µM (inactive)	5.45 µM (inactive)	0.889 µM (active)	1.81 µM (inactive)	5.36 µM (inactive)	0.745 µM (active)	16.2 µM (inactive)	0.82 µM (active)
